Laboratory results: patent publication US20260250312A1, “ANTIBACTERIAL COMPOUNDS ELIMINATING DORMANT BACTERIAL CELLS” (UNIVERSITÉ D'AIX-MARSEILLE, priority 2022, published 2026)
In brackets after ≈: the same amount, converted by molar mass. Several values for one entry are separate records, joined by “and”; a condition that tells them apart may be missing. Identical values can stand only once. Like-named read-outs stand apart in the source and are kept apart here. Marks after values point to notes of the source that are not given here.

Columns and labels:
[1] = test system: CHO-K1 cells; assay: WST1 cytotoxicity test; assay type: cell-based, Chinese hamster
How it was run: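 CHO-K1 cells pre-cultured 24 h, then exposed 24 h at 37 °C to increasing compound concentrations. Viability read as WST-1 formazan absorbance at 450 nm after 20 min; dose-response fitted by nonlinear regression.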

[2] = test system: E. coli non-persister cells; assay: Anti-persister activity test, non-persister cells; assay type: cell-based, Escherichia coli
Procedure: (§1) Anti-persister activity test: Escherichia coli (E. coli) persister cells were generated and isolated as described by MARQUES, C. N. H. et al. (Applied and Environmental Microbiology 2014, Vol. 80, No. 22, pp. 6976-6991). E. coli persister cells were compared to E. coli non-persister cells. 1 mL persister or non-persister bacteria culture was added in a 1.5 mL microtube with each of the compounds to be tested or ciprofloxacin as a […], and incubated at 37° C. with 160 rpm shaking for 4 hours. After 4 hours treatment with the compounds, the microtubes were centrifuged at 3,500g for 5 minutes and the pellets were resuspended in 1 mL of fresh drug free RM broth (10 g/L M9 salt, 2% casamino acids, 1 mM MgCl2, 1% glycerol). Resuspended bacteria were then plated over LB agar plates and incubated at 37° C. Bacterial colonies were enumerated after 24, 48 and 96 hours to estimate the survival rate.

[3] = test system: Escherichia coli (E. coli) persister cells; assay: Anti-persister activity test, persister cells; assay type: cell-based; details: for anti-persister activity (in words): E. coli persister cells, Table 8 conditions
Procedure: as §1

[4] = test system: Pseudomonas aeruginosa (ATCC27853); assay: Microdilution MIC assay (CLSI-based), P. aeruginosa; assay type: cell-based; details: 20 hours incubation at 35-37° C., MHB; for MIC: Pseudomonas aeruginosa, ATCC27853, 20 h, read-out: Minimum inhibitory concentration P. aeruginosa ATCC27853
How it was run: (§2)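 Broth microdilution per modified CLSI guidelines in Mueller Hinton broth, 200 μL, inoculum ca. 5×10^5 CFU/mL; compounds tested as salts, twofold dilutions from 0.2 mg/mL, in triplicate. MIC determined from OD at 620 nm after incubation.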

[5] = test system: Enterococcus faecalis (ATCC29212); assay: Microdilution MIC assay (CLSI-based), E. faecalis; assay type: cell-based; details: 20 hours incubation at 35-37° C., MHB; for MIC: Enterococcus faecalis, ATCC29212, 20 h, read-out: Minimum inhibitory concentration E. faecalis ATCC29212
How it was run: as §2

[6] = test system: Escherichia coli (ATCC28922); assay: Microdilution MIC assay (CLSI-based), E. coli; assay type: cell-based; details: 20 hours incubation at 35-37° C., MHB; for MIC: Escherichia coli, ATCC28922, 20 h, read-out: Minimum inhibitory concentration E. coli ATCC28922
How it was run: as §2

[7] = test system: Staphylococcus aureus (ATCC25923); assay: Microdilution MIC assay (CLSI-based), S. aureus; assay type: cell-based; details: 20 hours incubation at 35-37° C., MHB; for MIC: Staphylococcus aureus, ATCC25923, 20 h, read-out: Minimum inhibitory concentration S. aureus ATCC25923
How it was run: as §2

[8] = WST1, 24 hours at 37° C., read-out: IC50 CHO
[9] = WST1, Table 8, read-out: Toxicity IC50 CHO
[10] = concentration used 125 μM, 4 hours treatment
[11] = Cricetulus griseus, CHO-K1, 24 h, WST1, 24 hours at 37° C., read-out: IC50 CHO
[12] = Cricetulus griseus, CHO-K1, WST1, as printed in Table 8, read-out: Toxicity IC50 CHO

| SMILES | IC50 CHO ([1]; WST1, 24 hours at 37° C.) [µg/mL] | IC50 [1, 8] [µM] | IC50 [1, 9] [µM] | anti-persister activity (in words) [3] | Minimum inhibitory concentration P. aeruginosa ATCC27853 [4] | Minimum inhibitory concentration E. faecalis ATCC29212 [5] | Minimum inhibitory concentration E. coli ATCC28922 [6] | MIC [7] | toxicity results (in words) [1] | IC50 [1, 11] | IC50 [1, 12] [µM] | MIC [4] | MIC [5] | MIC [6] | further results |
| --- | --- | --- | --- | --- | --- | --- | --- | --- | --- | --- | --- | --- | --- | --- | --- |
| COC(=O)[C@H](NC(=O)CC[C@@H](C)[C@H]1CCC2C3C(CC[C@@]21C)[C@@]1(C)CC[C@H](NCCCNCCCN)C[C@H]1C[C@H]3O)C(C)C (stereo partly drawn) [Compound S047, methyl ((4R)-4-((3S,5S,7R,10S,13R,17R)-3-((3-((3-aminopropyl)amino)propyl)amino)-7-hydroxy-10,13-dimethylhexadecahydro-1H-cyclopenta[a]phenanthren-17-yl)pentanoyl)-D-valinate] | 57.61 (≈ 93.1 µM) | 93.1 | 93.1 | both anti-persister and anti-bacterial activities | 12.5* μM and 8* μg/mL | 12.5* μM and 8* μg/mL | 12.5* μM and 8* μg/mL | 6.25 µM and 4 µg/mL | – | – | – | – | – | – | viability at 125 µM ([2]; Escherichia coli, 4 h, read-out: Non-persister cell survival rate 96 h, concentration used 125 μM, 4 hours treatment): 0%; viability at 125 µM ([3]; Escherichia coli, 4 h, read-out: Persister cell survival rate 96 h, concentration used 125 μM, 4 hours treatment): 0% |
| COC(=O)[C@H](NC(=O)CC[C@@H](C)[C@H]1CCC2C3C(CC[C@@]21C)[C@@]1(C)CC[C@H](NCCCNCCCN)C[C@H]1C[C@H]3O)C(C)C (stereo partly drawn) [Compound S048, methyl ((4R)-4-((3S,5S,7R,10S,13R,17R)-3-((3-((3-aminopropyl)amino)propyl)amino)-7-hydroxy-10,13-dimethylhexadecahydro-1H-cyclopenta[a]phenanthren-17-yl)pentanoyl)-D-valinate] | 60.09 (≈ 97.1 µM) | 97.1 | 97.1 | both anti-persister and anti-bacterial activities | 12.5* μM and 8* μg/mL | 25* μM and 16* μg/mL | 6.25* μM and 4* μg/mL | – | – | – | – | – | – | – | Non-persister cell survival rate 96 h [2, 10]: 0.0%; Persister cell survival rate 96 h [3, 10]: 0.0%; Minimum inhibitory concentration S. aureus ATCC25923 [7]: 6.25* μM and 4* μg/mL |
| COC(=O)[C@H](NC(=O)CC[C@@H](C)[C@H]1CCC2C3CC[C@@H]4C[C@@H](NCCCNCCCCNCCCN)CC[C@]4(C)C3C[C@H](O)[C@@]21C)C(C)C (stereo partly drawn) [Compound S052, methyl ((4R)-4-((3S,5R,10S,12S,13R,17R)-3-((3-((4-((3-aminopropyl)amino)butyl)amino)propyl)amino)-12-hydroxy-10,13-dimethylhexadecahydro-1H-cyclopenta[a]phenanthren-17-yl)pentanoyl)-D-valinate] | – | – | – | both anti-persister and anti-bacterial activities | – | – | – | 3.12 µM and 2 µg/mL | good toxicity results | 50 µM and 34 µg/mL | 50 | 12.5 µM and 8 µg/mL | 25 µM and 16 µg/mL | 12.5 µM and 8 µg/mL | viability at 62.5 µM ([2]; Escherichia coli, 4 h, read-out: Non-persister cell survival rate 96 h, concentration used 62.5 μM, 4 hours treatment): 0%; viability at 62.5 µM ([3]; Escherichia coli, 4 h, read-out: Persister cell survival rate 96 h, concentration used 62.5 μM, 4 hours treatment): 0% |
| COC(=O)[C@H](NC(=O)CC[C@@H](C)[C@H]1CCC2C3C(C[C@H](O)[C@@]21C)[C@@]1(C)CC[C@H](NCCCN(CCCN)CCCN)C[C@H]1C[C@H]3O)C(C)C (stereo partly drawn) [Compound S060, methyl ((4R)-4-((3S,5S,7R,10S,12S,13R,17R)-3-((3-(bis(3-aminopropyl)amino)propyl)amino)-7,12-dihydroxy-10,13-dimethylhexadecahydro-1H-cyclopenta[a]phenanthren-17-yl)pentanoyl)-D-valinate] | – | – | – | very potent anti-persister activity | – | – | – | 40 µM and 32 µg/mL | good toxicity results | 186 µM and 129 µg/mL | 186 | 160 µM and 128 µg/mL | 160 µM and 128 µg/mL | 160 µM and 128 µg/mL | viability at 250 µM ([2]; Escherichia coli, 4 h, read-out: Non-persister cell survival rate 96 h, concentration used 250 μM, 4 hours treatment): 3.8%; viability at 250 µM ([3]; Escherichia coli, 4 h, read-out: Persister cell survival rate 96 h, concentration used 250 μM, 4 hours treatment): 2% |
